Assay results from US12678478B2, “Compositions and methods for treating dysregulated wound healing” (The Regents of the University of California, priority 2020, dated 2026).

Experiments:
[1] = system: Col5a1CKO cardiac fibroblasts; assay: Myofibroblast gene expression (qPCR) in Col5a1CKO cardiac fibroblasts generated ex vivo with or without cilengitide; type: cell-based, mouse; conditions: Cilengitide 1 μM, 7 days, Col5a1 floxed cardiac fibroblasts infected with lentiviral Cre, versus no cilengitide (FIG. 8F)
Description: For qPCR, and RNA-seq, the injured and uninjured regions of the heart were harvested at different time points following injury, RNA extracted using RNeasy Mini kit (Qiagen). cDNAs were generated using iScript cDNA Synthesis Kit (BioRad) and qPCR performed.
Cardiac fibroblasts were isolated from Col5a1 fl/fl mouse as described above. These cells were infected with Lentivirus-Large T antigen in presence of polybrene (8 μg/ml) for 16 h, treated with puromycin (2 μg/ml) for selection of infected cells. Immortalized cells were cultured with 10% FBS containing high glucose DMEM. Cells so immortalized were then infected with Lentivirus-Cre recombinase or lentivirus-GFP to generate Col5a1 deficient cardiac fibroblast or control cardiac fibroblast, respectively. These cells were cultured for 6-7 days and used for each experiment to determine effects on gene expression. To determine an effect of Cilengitide on these cells, Col5a1fl/fl cardiac fibroblasts were pretreated with Cilengitide (1 μM) in 10% FBS containing high glucose DMEM for 1 h before infection with lentivirus-Cre recombinase or lentivirus-GFP. […]
Given the upregulation of αvβ3 and αvβ5 integrins in Col5a1CKO cardiac fibroblasts, whether there was a causal relationship between these differentially expressed integrins and myofibroblast differentiation was determined. […]

Col5a1CKO animals = assay: Acute ischemic cardiac injury (LAD ligation) in Col5a1CKO animals treated with cilengitide; type: in vivo, mouse
[2] = system: control (Cre(−)Col5a1fl/fl) littermate animals; assay: Acute ischemic cardiac injury (LAD ligation) in control littermates treated with cilengitide; type: in vivo, mouse
Description: All animal studies were approved by the Animal Research Committee, University of California, Los Angeles, Myocardial infarction was performed by ligating the left anterior descending (LAD) coronary artery following open thoracotomy. Briefly, Mice were anesthetized with ketamine (80 mg/kg)/xylazine (20 mg/kg) by intraperitoneal injection. Respiration was provided by mechanical ventilation with 95% 02 (tidal volume 0.5 ml, 130 breaths/min). The LAD coronary artery was ligated intramurally 2 mm from its origin with a 9-0 proline suture.
For experiments related to use of cilengitide, 20 mg/kg of Cilengitide diluted in PBS was administered by intraperitoneal injection every day until harvest and PBS was used as vehicle as a control.
For echocardiography, animals were continuously anesthetized with 1.5% isoflurane and 95% O2, Vevo2100 imaging system and a […] scan head (Toronto, Canada) were used to acquire short/long axis B-mode and M-mode images. Long axis B-mode view was used for analyzing peak longitudinal strain rate. […]
For Masson Trichrome staining, sections were stained using Masson Trichrome Stain kit (Thermo Scientific, 87019). Images were taken in heart sections from apex, mid-ventricle, and close to suture and fibrotic area analyzed from apex to mid-ventricle. Scar tissue area was calculated as the fraction of left ventricular surface area occupied by the scar tissue. […]

## CC(C)[C@H]1C(=O)N[C@@H](CCCN=C(N)N)C(=O)NCC(=O)N[C@@H](CC(=O)O)C(=O)N[C@H](Cc2ccccc2)C(=O)N1C [cilengitide, Cilengitide]
[1]
  expression of myofibroblast markers: significantly reduced
Col5a1CKO animals; 20 mg/kg daily for 14 days, 2 weeks post injury, severe = >50% fibrotic area (FIG. 8L)
  fraction of animals exhibiting severe fibrosis: 22%
Col5a1CKO animals; 20 mg/kg daily for 14 days, 2 weeks post injury, versus vehicle-injected group, p<0.05 (FIGS. 8N, 8O)
  degree of myocyte hypertrophy in the border zone (heart weight/body weight ratios and histological analysis): substantially reduced
Col5a1CKO animals; 20 mg/kg daily for 14 days, Masson trichrome, 2 weeks post injury, mean±S.D., n=9, p<0.05 versus Col5a1CKO+vehicle (FIGS. 8J, 8K)
  Scar size expressed as a fraction of left ventricular surface area: 41.2±16.1%
Col5a1CKO animals; 20 mg/kg daily intraperitoneal for 14 days from day of injury, 1 and 2 weeks after injury, versus vehicle-injected Col5a1CKO (FIGS. 8H, 8I)
  post injury cardiac function (EF, FS by echocardiography): complete rescue of function
Col5a1CKO animals; 2 weeks of cilengitide injection, 20 mg/kg daily, versus vehicle-injected group, p<0.05 (FIG. 8M)
  number of myofibroblasts (αSMA+vimentin+cells/vimentin+cells) in scars: significantly reduced
[2]; 20 mg/kg daily for 14 days from day of injury, control littermates (FIG. 8H)
  post injury cardiac function (EF, FS by echocardiography): did not affect
[2]; 20 mg/kg daily for 14 days, control animals, 2 weeks post injury (FIGS. 8J, 8K)
  scar size: did not affect
